Assay results published in patent publication US9828344B2, “Inhibitors of the notch signaling pathway and secretion for use in medicine” (Leibniz-Institut für Altersforschung Fritz-Lipmann-Institut …, priority 2012, dated 2017).
pEC50: −log10 of the molar value.

How the values were obtained:
Format in all cases: cell-based
[1] = system: SEAP; assay: Secreted alkaline phosphatase (SEAP) assay in HeLa cells; details: medium measured via photometry
Method: (§1) FIG. 18: FLI-06 inhibits secretion of secreted alkaline phosphates; FLI-06 kills cancerous, Notch dependent T-cells. a) The secreted alkaline phosphatase (SEAP) assay was carried out. Medium was collected and SEAP secretion was measured via photometry. […] The cells were grown in suspension with the indicated amounts of FLI-06 or DMSO control and growth was determined via FACS analysis.
In order to confirm the inhibitory effect of FLI-06 on secretion we transfected HeLa cells with a plasmid encoding a secreted alkaline phosphatase (SEAP).

[2] = system: KlothoS; assay: Secretion of KlothoS from transfected HeLa cells; details: 18 h
Method: Thereafter cells were fixed and analyzed by immunofluorescence microscopy. […] After incubating with compounds for 18 h media were collected, cells lysed and both analyzed by Western Blotting using Klotho antibody. As loading control membranes were probed for actin. […] […] Tunicamycin (Tun) and 5 mM DTT were used as positive controls. […] Shown is the average of three independent experiments, error bars indicate standard deviation.

[3] = molecular target: T1, GBF1 (Homo sapiens, UniProt Q92538); assay: GBF1-GFP distribution in transfected HeLa cells; details: FLI-06 10 μM, BFA 10 μg/ml, GCA 10 μM, 10 h
T1 construct: expressed in transfected cells; host or cells: HeLa (transient)

[4] = system: NotchΔE-EGFP; assay: cells
Excerpt: To identify novel regulatory factors involved in Notch trafficking/processing an image-based high content screen was set up. […] NotchΔE-EGFP is a direct substrate for γ-secretase at the PM, and under physiological conditions is proteolytically processed to NICD-EGFP that translocates into the nucleus (for scheme see FIG. 1b), resulting in a strong nuclear EGFP-staining in steady state^15 (FIG. 1d). […] Importantly, changes in subcellular localization of the reporter are amenable to quantitation by automated microscopy^15. Accordingly, reporter fluorescence was determined in the nucleus (nuc) and in a ring around the nucleus (enuc), and the ratio enuc/nuc was evaluated (schematized in FIG. 1c). Thereafter, the assay design was functionally validated. […] The assay also reliably detected trafficking defects in the secretory pathway. […] Taken together, the assay was validated for reliably detecting concentration and time dependent changes in trafficking and processing of the Notch reporter.
Cells were seeded in 96-well plates at a density of 5000 cells/well in 100 μl medium. The next day, 100 μl medium containing the respective test compounds was added. Cells were incubated for 16 h, fixed and processed for automated microscopy. For the putative gamma-secretase inhibitors the enuc intensity was divided by the DAPT control and for the trafficking inhibitors normalized percentage inhibition against DAPT/DMSO controls of log 2 transformed nuc/enuc ratios were calculated. Relative activity values were read into “R” (http://www.r-project.org/) and EC50 estimates were calculated using four-parameter log-logistic fit with the package “drc”^51.
Images were acquired on an ArrayScan VTi automated microscope (ThermoFisher) and numerical data were extracted with the Compartmental Analysis BioApplication of the bundled software suite. Compound screening raw data were collected at the FMP and data transformation was performed according to standard procedures (ref 17 and supp. Refs 6-7).

[5] = system: VSVG-EGFP
[6] = system: ER; assay: ER tubule-to-sheet live-cell imaging in COS cells (prlss-KDEL-mRFP)
Method: FIG. 7: FLI-06 induces ER sheet formation. A) COS cells transfected with prlss-KDEL-mRFP were incubated with 10 μM FLI-06 for indicated times and imaged by live-cell microscopy. The inserts are magnifications of the boxed areas. B) Images from cells treated as in A) were scored for the percentage of cells that lost most of their ER-tubules. For each time point 40-60 cells were counted. Data represent mean percentages, error bars SEM, n=3 independent experiments.
FIG. 16: Only ER exit inhibitors convert ER tubules to sheets. COS cells plated on LabTek chambered coverslips were transiently transfected with the ER-marker prlss-KDEL-mRFP, incubated the next day for 2 h with 10 iM of indicated compounds and imaged by live-cell microscopy. […] FLI-06+CHX, cells were additionally incubated in 40 iM cycloheximide. Nife, nifedipine; nimo, nimodipine. Numbers refer to numbering in FIG. 5a.
We noted a morphological change of the ER upon FLI-06 incubation that was difficult to capture in fixed cells. Live-cell imaging was therefore performed in COS cells transfected with the ER marker prlss-KDEL-mRFP (supp. Ref 3) and FLI-06 was added for 120 min (FIG. 7a). After 120 min almost all cells had no detectable ER-tubules anymore and instead were filled with large sheet-like structures. […] To test whether the morphological change is related to the inhibition of ER exit, next our set of FLI-06 derivatives was tested. […] Rather, the ER-sheets are indicative for structural changes, maybe initiated within ERES, that inhibit ER exit.

[7] = system: Golgi apparatus; assay: Immunofluorescence of Golgi and early secretory pathway markers in HeLa cells
[8] = system: DND-41 cells; assay: Growth of DND-41 cells (FACS)
Method: as §1
To test whether FLI-06 would ultimately be useful to treat cancerous diseases we incubated DND-41 cells having a Notch heterodimerization domain that leads to hyperactive Notch signaling (Weng et al, Science, 2004) with FLI-06.

T1 sequence (Q92538 whole entry, species assumed): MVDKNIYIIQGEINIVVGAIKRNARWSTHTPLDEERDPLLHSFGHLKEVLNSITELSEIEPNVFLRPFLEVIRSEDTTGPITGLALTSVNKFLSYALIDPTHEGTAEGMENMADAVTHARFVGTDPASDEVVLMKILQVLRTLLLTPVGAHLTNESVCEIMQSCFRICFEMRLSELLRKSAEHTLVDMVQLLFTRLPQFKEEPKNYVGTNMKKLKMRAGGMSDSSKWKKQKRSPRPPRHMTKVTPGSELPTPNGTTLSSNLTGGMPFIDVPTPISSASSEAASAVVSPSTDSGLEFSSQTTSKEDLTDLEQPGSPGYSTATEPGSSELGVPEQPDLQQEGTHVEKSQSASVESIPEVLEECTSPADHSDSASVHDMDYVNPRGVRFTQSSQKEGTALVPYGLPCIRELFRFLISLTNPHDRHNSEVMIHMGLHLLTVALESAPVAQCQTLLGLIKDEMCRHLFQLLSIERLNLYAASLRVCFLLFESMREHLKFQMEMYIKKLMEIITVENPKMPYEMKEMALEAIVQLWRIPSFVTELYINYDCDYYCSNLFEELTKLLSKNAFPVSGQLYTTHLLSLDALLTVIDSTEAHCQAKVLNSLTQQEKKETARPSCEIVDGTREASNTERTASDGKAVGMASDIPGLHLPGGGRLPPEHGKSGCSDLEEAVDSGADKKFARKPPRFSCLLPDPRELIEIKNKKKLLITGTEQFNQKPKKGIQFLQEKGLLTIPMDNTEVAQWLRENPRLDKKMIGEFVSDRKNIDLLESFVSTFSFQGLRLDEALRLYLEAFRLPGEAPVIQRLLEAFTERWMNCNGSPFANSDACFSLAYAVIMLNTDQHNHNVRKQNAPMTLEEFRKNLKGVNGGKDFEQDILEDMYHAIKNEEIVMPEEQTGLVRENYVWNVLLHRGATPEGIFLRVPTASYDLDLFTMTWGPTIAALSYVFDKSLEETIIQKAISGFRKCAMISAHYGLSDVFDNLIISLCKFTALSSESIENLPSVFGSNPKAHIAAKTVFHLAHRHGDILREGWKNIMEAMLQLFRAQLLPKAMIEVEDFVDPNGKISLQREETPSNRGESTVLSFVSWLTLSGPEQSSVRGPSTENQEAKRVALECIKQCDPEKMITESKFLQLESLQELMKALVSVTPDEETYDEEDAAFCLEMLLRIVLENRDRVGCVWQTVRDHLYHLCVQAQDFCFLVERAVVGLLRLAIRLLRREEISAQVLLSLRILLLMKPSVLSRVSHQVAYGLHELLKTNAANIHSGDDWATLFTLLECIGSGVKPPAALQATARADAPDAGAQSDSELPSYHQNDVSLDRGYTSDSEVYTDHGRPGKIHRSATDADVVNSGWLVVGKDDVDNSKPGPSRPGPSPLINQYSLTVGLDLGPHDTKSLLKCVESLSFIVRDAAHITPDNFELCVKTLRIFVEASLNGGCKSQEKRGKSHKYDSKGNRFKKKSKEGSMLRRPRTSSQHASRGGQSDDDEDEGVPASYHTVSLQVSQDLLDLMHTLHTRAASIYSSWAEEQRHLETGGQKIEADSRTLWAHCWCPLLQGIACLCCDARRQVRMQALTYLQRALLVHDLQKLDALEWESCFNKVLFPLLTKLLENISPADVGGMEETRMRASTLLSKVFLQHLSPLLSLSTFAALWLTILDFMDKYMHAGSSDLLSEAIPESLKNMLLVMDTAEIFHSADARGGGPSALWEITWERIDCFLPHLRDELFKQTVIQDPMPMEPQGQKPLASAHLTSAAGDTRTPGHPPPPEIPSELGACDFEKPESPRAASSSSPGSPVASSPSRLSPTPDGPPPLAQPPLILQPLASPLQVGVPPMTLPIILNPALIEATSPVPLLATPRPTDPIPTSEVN

CC1=C(C(=O)OC2CCCCC2)C(c2ccc([N+](=O)[O-])cc2)C2=C(CC(C)(C)CC2=O)N1 (stereo not drawn) [FLI-06, Cyclohexyl 4-(4′-nitrophenyl)-2,7,7-trimethyl-5-oxo-1,4,5,6,7,8-hexahydroquinoline-3-carboxylate]
secretion of SEAP [1]: inhibition of secretion of SEAP | secretion of KlothoS [2]: inhibit secretion of KlothoS | distribution of GBF1-GFP [3]: displayed the distribution of control cells | activity in NotchΔE-EGFP cells (enuc/nuc ratios) ([4]; SAR and prior-art comparison, FIG. 5a/5b): equally active as the initial screening hit | pEC50 ([4]; assay not given, read-out: EC50 as secretion inhibitor): 5.64 | recruitment of VSVG-EGFP to ERES [5]: strongly reduced | velocity of action on ER export [5]: acts instantaneously on ER export | start of ER sheet-formation ([6]; 10 μM FLI-06): 5 to 10 min | t1/2 of ER sheet-formation ([6]; 10 μM FLI-06): about 14 min | ER tubule-to-sheets phenotype ([6]; 10 iM, 2 h): elicited the tubule-to-sheets phenotype | Golgi integrity (giantin) ([7]; 10 μM, 18 h): complete disruption of the Golgi | time to loss of Golgi-like juxtanuclear βCOP staining ([7]; 1 ig/ml BFA or 10 iM FLI-06): 30 to 40 min | distribution of GM130 and TGN46 ([7]; 10 iM FLI-06 or 1 ig/ml BFA, 18 h): dispersal of the cis-Golgi marker GM130 and of the trans-Golgi network (TGN) marker TGN46 | hyperglycosylation of VSVG-EGFP ([7]; 4 h at 40° C. with cycloheximide): did not cause a hyperglycosylation | tubulation of endosomes ([7]; Alexa555-transferrin labelled endosomes): did not cause tubulation of endosomes | fusion of ER and Golgi ([7]; prlss-KDEL-mRFP and B4GALT-EGFP markers): did not lead to fusion of ER and Golgi | effect on DND-41 cells ([8]; 1 μM): inhibited proliferation | effect on DND-41 cells ([8]; 10 μM): total cell death after 4 days
